Measured values: patent publication US20080182872A1, “USE OF ER-BETA SELECTIVE LIGANDS FOR TREATING ACUTE LUNG INJURIES” (WYETH, priority 2007, published 2008)

Tests used:
[1] = tested on: CLP-induced polymicrobial sepsis; assay: Murine cecal ligation and puncture (CLP) model of polymicrobial sepsis; assay type: in vivo, BALB/c mice; conditions: score 0 normal to 4 marked diffuse inflammation and damage; oral dosing from time of CLP; euthanized at 48 hours; 8 animals; p<0.001 vs vehicle 3.08±0.74
Procedure: Murine cecal ligation and puncture is an accepted model of sepsis and was performed according to a previously published protocol [Opal et al., “evaluation of the safety of recombinant P-selectin glycoprotein ligand-immunoglobulin G fusion protein in experimental models of localized and systemic infection,” Shock 2001;15:285-90]. […] Acute lung injury is a documented component of this peritonitis-induced sepsis, and the model has been used to study the effects of other pharmaceutical agents on acute lung injury in sepsis [Tsujimoto et al. Shock 2005;23:39-44; and Singleton et al. Am J Physiol Regul Integr Comp Physiol (Jan. 18, 2007)].
Mice were euthanized at 48 hours following CLP and treatment with vehicle or Compound 1, both treatments having begun at the time of CLP.
Compound 1 was given at a range of doses orally at time 0, 24 and 48 hours following CLP in male and female BALB/c mice Survival, inflammatory markers, lung histopathology, and microbiologic parameters were assessed.
Multiple lung specimens were taken at necropsy from 8 vehicle- and 8 Compound 1—treated animals and evaluated by an independent pathologist unaware of the treatment group assignments. Treatment with Compound 1 reduced lung lesions (such as lung edema and lung inflammation) comparing to that with vehicle (Compound 1: 1.0±0.76 vs. vehicle: 3.08±0.74, p<0.001). […]

[2] = tested on: lung tissue gene expression; assay: Lung tissue gene expression in the mCLP model (Affymetrix array, Ingenuity Pathways Analysis); assay type: in vivo; conditions: mice subjected to CLP, intravenous treatment at CLP induction, lung tissue at 48 hours
Procedure: In order to further define the activity of Compound 1 in murine CLP, satellite groups of mice were treated intravenously at the time of CLP induction surgery with vehicle or Compound 1. An additional group of mice(surgical sham group) were subjected to the anesthesia and laparotomy, the cecum was manipulated but not ligated, and then the abdomen was closed. Because mCLP produces a progressive sepsis state, the animals become extremely ill and begin to succumb between 48-72 hours after mCLP. Thus, these animals were euthanized at 48 hours and lung tissue samples collected for gene expression analysis.
Messenger RNA was prepared by standard techniques, and the samples were processed on the Mouse430—2 Affymetrix commercial array, containing 45,037 non-control probe sets.
A heat map of differential gene expression was used to detect those gene transcripts with gene expression decreasing and those gene transcripts with gene expression increasing.
Using Ingenuity Pathways Analysis (IPA), 277 of the 522 probe sets were eligible for generating pathways. […] These pathways are identified in Table 4.

E. coli = assay: Intravenous E. coli challenge model of sepsis in baboons; assay type: in vivo; conditions: 10 mg/kg intravenously
Procedure: The intravenous E. coli infusion model of sepsis in baboons has been used for many years in sepsis research [Taylor F B Crit Care Med 2001 ;29:S78-89], and it has acute lung injury as one of its pathophysiological features [Sabharwal A K et al. Am J Resp Crit Care 1995; 151:758-67].
Compound 1 was given at a range of doses […] intravenously at a dose of 10 mg/kg in baboons 5 minutes before and then at 2, 24, 48, 72 and 96 hours following E. coli challenge. Survival, inflammatory markers, lung histopathology, and microbiologic parameters were assessed.
In the baboon study the lungs were examined at euthanasia of the animals when moribund or at the end of the 7 day experiment. Animals were assigned to vehicle and Compound 1 E. coli challenge. The lung specimens were evaluated by an independent pathologist unaware of treatment group assignments.

[3] = tested on: peripheral blood mononuclear cells (PBMC) gene transcripts and plasma chemokines; assay: Plasma proteome and PBMC gene transcription in the IV live E. coli challenge model in baboon; assay type: in vivo
Procedure: The plasma proteome and gene transcription of peripheral blood mononuclear cells (PBMC) were investigated using the baboon model of sepsis to evaluate the effect of Compound 1 on progression of the disease. The study comprised three treatment groups—sham-treated, vehicle, and Compound 1—of three baboons each. Blood samples were drawn at multiple time points (0, 0.5, 1, 2, 3, 4, 6, 24, 48, and 168 hours) from each baboon. NuGen amplified RNA was prepared from peripheral blood mononuclear cells (PBMC) isolated from the 0, 1, 6, and 24 hour blood samples. RNA levels were then measured using Affymetrix rhesus monkey Genechips, which interrogated 52,865 transcripts. Of interest was whether expression levels of one or more of these transcripts differed among the three treatment groups over the course of the study.
Genechip data were processed using Affymetrix MAS 5 software to calculate detection p-values and signal (expression) values. Detection p-values were used to generate Affymetrix Absent, Marginal, or Present calls (p-value≧0.065: Absent; 0.05≦p-value<0.065: Marginal; p-value<0.05: Present). Signal values were normalized by the standard MAS 5 procedure.
This filter reduced the number of transcripts for further analysis to 43,181.
To adjust for differences among animals in baseline expression values, change from baseline expression was analyzed. Change from baseline expression values were calculated using log2-transformed signal values. For each transcript, the log2 signal value for an animal at the 0 hour (baseline) sampling time was subtracted from the log2 signal value for the same animal for each later sampling time to yield change from baseline values for 1, 6, and 24 hours for that animal.
Repeated-measures analysis of variance (ANOVA) was used to compare (log2-transformed) change from baseline expression values in the treatment groups across the sampling time points. The ANOVA model included terms for treatment group and sampling time, and a term for the interaction between treatment group and time. The model also included a compound symmetry covariance parameter to account for any within-animal correlation between measurements at different sampling times from the same animal. Separate ANOVAs were run for each transcript. Pairwise comparisons between treatment groups were computed for mean concentrations across all times as well as for each time point separated. These pairwise comparisons were based on two-sided t-tests, with the error term for the t-tests based on the overall error term from the ANOVA.
Due to the substantial number of statistical tests performed, false discovery rates (FDRs) were used to adjust the raw p-values from F-tests and t-tests for multiple comparisons. The FDRs were computed to control the family-wise error level by calculating FDRs across transcripts separately for each set of comparisons (e.g., each pairwise comparison at a particular sampling time).

S. pneumoniae = assay: Murine pneumonia model (invasive pneumococcal pneumonia); assay type: in vivo; conditions: 3 mg/kg IV at 24 and 48 hours after S. pneumoniae LD90 inoculation; moxifloxacin at 6, 24, 48 hours; all vehicle animals succumbed by 80 hours
Procedure: The effects of Compound 1 and Compound 2[2-(3-fluoro-4-hydroxyphenyl)-7-vinyl-1,3-benzoxazol-5-ol, or ERB-041] initially dosed at 3 mg/kg IV were being assessed on 7-day survival, microbial clearance and attenuation the acute and chronic pro-inflammatory effects of invasive pneumococcal pneumonia in lung tissue and distant organs in the murine pneumonia model. [Mohler J et al. Intensive Care Med 2003; 29:808-816.] Compound 1 and Compound 2 were tested to determine their ability to modulate the pathophysiology of severe infection and mortality from local and systemic inflammation from severe bacterial pneumonia. The compounds were delivered IV at 24 and 48 hours after inoculation with S. pneumoniae at an LD90 dose. Moxifloxacin was given at 6, 24 and 48 hours. The animals became bacteremic and develop a lethal pulmonary and systemic infection between 48 and 72 hours after the primary inoculation. All of the vehicle treated animals succumbed by 80 hours (3 days and 8 hours), while at 7 days 20% of the Compound 1—treated animals were alive and 60% of the Compound 2—treated animals survived.

[4] = baboon plasma after E coli challenge
[5] = by 24 hours after E coli infusion, compared to vehicle treated animals

Structure (SMILES): N#Cc1cc(-c2ccc(O)c(F)c2)cc2ccc(O)cc12 [Compound 1, 3-(3-fluoro-4-hydroxy-phenyl)-7-hydroxy-naphthalene-1-carbonitrile]
- lung lesions (lung edema and lung inflammation) histopathology score [1]: 1.0±0.76
- proinflammatory pathways (gene transcripts) in the lungs [2]: significantly decreased
- clinical signs of pulmonary injury (percent change in respiratory rate from baseline) (E. coli): attenuated
- hyaline membrane formation (histopathology) (E. coli; lungs at euthanasia or day 7): absence of hyaline membrane formation
- intrapulmonary hemorrhage (histopathology) (E. coli; lungs at euthanasia or day 7): decreased intrapulmonary hemorrhage
- plasma MCP-1 [3, 4]: significantly reduced
- plasma MIP-1 alpha [3, 4]: significantly reduced
- Hypoxia inducible factor-2 Alpha (HIF2-ALPHA) gene transcript in PBMC [3, 5]: decreased
- Nuclear receptor subfamily 4, group A, member 3 (NR4A3) gene transcript in PBMC [3, 5]: decreased
- early growth response 3 (EGR-3) gene transcript in PBMC [3, 5]: decreased
- animals alive (survival) at 7 days (S. pneumoniae): 20%

Structure (SMILES): C=Cc1cc(O)cc2nc(-c3ccc(O)c(F)c3)oc12 [Compound 2, 2-(3-fluoro-4-hydroxyphenyl)-7-vinyl-1,3-benzoxazol-5-ol]
- animals alive (survival) at 7 days (S. pneumoniae): 60%
